Paper PMC12563652 (International Journal of Molecular Sciences, 2025)

What was measured:
[1] = system: C57BL/6 mice; experiment: Inhibition of gastric emptying (mouse model, phenol red); type: in vivo; conditions: 5 mg/kg b.w. alone
Description: Fifty male C57BL/6 mice (22–27 g) were housed in standard cages while maintaining a 12:12-h light/dark cycle, with food and water available ad libitum. The experimental procedures were performed from 10:00 a.m. to 14:00 p.m.
The experiment was conducted according to Miyasaka et al. and Kotańska et al., with some minor modifications. Mice were subjected to a 20 h food deprivation and a 2 h water deprivation prior to testing. The animals received a vehicle (0.25 mL/mouse) alone or along with various compounds: JP-14 (10 mg/kg b. w.), RT (5 mg/kg body weight), metformin (100 mg/kg b. w.), or loperamide (reference compound; 10 mg/kg b. w.) via gastric gavage. Following a 45 min interval, phenol red (0.5 mL, 0.05% w/v) combined with glucose (1 g/kg body weight) was administered through the same route. Additionally, each group received an intraperitoneal injection of heparin (2500 U/mouse) 20 min prior to the collection of stomach contents. Seven mice treated with the vehicle were sacrificed immediately after the phenol red administration to serve as a standard control (representing 100% phenol red in the stomach at 0 min), establishing a baseline for maximum absorbance (100%). The leftover mice were sacrificed 30 min later. The stomachs were removed and homogenized using an OMNI homogenizer (OMNI International Company, Kennesaw, GA, USA), with 10 mL of 0.1 N NaOH. To 5 mL of homogenate, 0.5 mL of 20% w/v solution of trichloroacetic acid was incorporated to precipitate the proteins. Subsequently, the samples were centrifuged at 600× g for 15 min at a temperature of 20 °C, and 0.25 mL of supernatant was mixed with 1 mL of 0.5 N NaOH to achieve maximum color intensity. The concentration of phenol red was measured using spectrophotometry, with absorbance evaluated at a wavelength of 560 nm (MuLTISKAN.GO, Thermo Fisher Scientific Inc., Waltham, MA USA). For each mouse, the percentage of gastric emptying (GE %) was calculated using the following equation:(1) GE%=(Ac0−Ab)/(Ac0−Ac30)×100% where: Ac0 is the absorbance of the control gastric sample collected immediately after dye administration, and Ac30 is the absorbance of the control gastric sample collected 30 min after dye administration, i.e., Ac0–Ac30 = 100% gastric emptying.

[2] = system: HepG2 cells; experiment: Glucose consumption (Amplex Red assay) in HepG2 cells; type: cell-based, human; conditions: 10 µM; relative to vehicle-treated cells
Description: The HepG2 human hepatocellular carcinoma cell line (ATCC® HB-8065™) was cultured in DMEM supplemented with 10% FBS, 100 µg/mL streptomycin, and 100 IU/mL penicillin at 37 °C in 5% CO2. Cells were seeded in 96-well plates at a density of 10,000 cells/well and used for experiments 24 h after plating.
Stock solutions of test compounds were prepared at a concentration of 10 mM in dimethyl sulfoxide (DMSO). At least 1 mg of each substance was carefully measured and mixed with the right amount of DMSO. A series of dilutions were made in DMSO and then further diluted in phosphate-buffered saline before being introduced into the cell culture medium. Precipitation or opalescence was assessed prior to application.
The glucose uptake was measured with the Amplex® Red Glucose/Glucose Oxidase Assay Kit from Thermo Fisher Scientific, following the guidelines provided by the maker. Cell culture supernatants were collected and incubated with a reaction mix containing 100 μM Amplex® Red reagent, 0.2 U/mL horseradish peroxidase (HRP), and 1 U/mL glucose oxidase at room temperature for 30 min in the dark. Fluorescence was measured at 530 nm excitation and 590 nm emission using the POLARstar Omega plate reader (BMG Labtech).

[3] = molecular target: T1, human TAAR1 (Homo sapiens, UniProt Q96RJ0); experiment: TAAR1 antagonist activity, Hit Hunter cAMP assay; type: cell-based; conditions: n.a. = no activity at 10–5 M; read-out: TAAR1 Ant EC50
T1 sequence (Q96RJ0 1-339): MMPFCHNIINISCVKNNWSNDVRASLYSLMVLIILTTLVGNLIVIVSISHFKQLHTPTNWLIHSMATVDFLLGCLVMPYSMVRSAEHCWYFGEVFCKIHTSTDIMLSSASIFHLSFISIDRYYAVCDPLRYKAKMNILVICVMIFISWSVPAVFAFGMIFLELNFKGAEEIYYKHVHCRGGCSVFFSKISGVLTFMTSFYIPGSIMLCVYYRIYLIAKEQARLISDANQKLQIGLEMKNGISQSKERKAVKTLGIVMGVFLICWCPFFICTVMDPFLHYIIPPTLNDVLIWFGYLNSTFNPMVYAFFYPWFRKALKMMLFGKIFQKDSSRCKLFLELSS

[4] = system: platelet aggregation in rat whole blood; experiment: In vitro collagen-induced platelet aggregation in rat whole blood (impedance aggregometry); type: cell-based; conditions: 100 µM, collagen 1.6 µg/mL
Description: In vitro platelet aggregation assays were conducted using freshly collected whole blood from rats, utilizing the Multiplate platelet function analyzer (Roche Diagnostics, Mannheim, Germany)—a five-channel device that measures electrical impedance, following methods described previously. Upon stimulation, platelets adhere to and aggregate on dual metal sensors within the test cuvette, causing an increase in electrical resistance, which corresponds to the number of platelets attached to the electrodes.
Blood was collected from the carotid artery of the rat into tubes coated with hirudin (S-Monovette, Sarstedt, Germany). A volume of 300 μL of the anticoagulated blood was mixed with 300 μL of prewarmed isotonic saline that contained the test compound or a vehicle control (0.1% DMSO) and incubated at 37 °C for 3 min under continuous stirring. Aggregation was triggered by adding collagen (final concentration: 1.6 µg/mL). Platelet activity was monitored for 6 min. Multiplate V2.04 software calculated the area under the curve (AUC) for each measurement to determine average platelet response.

N#Cc1c(C(F)(F)F)cc(-c2ccc(Cl)cc2)nc1SCC(=O)Nc1ncccn1 [RTI-7470-44]
effect on gastric emptying [1]: did not affect emptying
increase in glucose consumption (uptake) [2]: no significant changes
EC50 [3]: 168 ± 50.7 nM
reduction of collagen-induced platelet aggregation [4]: 41.75%
